Test results: patent publication US12568960B2, “Adjuvant combinations as foliar uptake accelerator for herbicidal compositions” (Bayer Aktiengesellschaft, priority 2019, dated 2026)
Each block holds one compound with its values, some of them ahead of it.

Key:
[1] = system: cuticula of apple leaves; experiment: Membrane (cuticle) penetration test
Method: The properties of the adjuvant combinations according to the invention as penetration enhancers were measured in a membrane penetration test on the cuticula of apple leaves.
Determination of bioavailability of various herbicides, plant growth regulators (PGRs) and safeners by cuticle penetration test.
The leaf cuticles were isolated enzymatically as described in the literature. The stomata-free cuticles were first dried under air and introduced into stainless steel diffusion cells. After the application of the test liquids to the original top side of the leaf and evaporation of liquid, the diffusion cells were transferred into thermostat blocks and loaded with water. At regular intervals, aliquot samples were taken, and the amount of active ingredient diffused was determined by means of HPLC. […] Detection was effected with a DAD detector. The results given in each case are the geometric penetration averages at the average measurement times. According to the variance, 10 repeat measurements were conducted.
Typically, a spray solution of the active ingredient (0.5 g of active ingredient/l) was produced. An aliquot was applied to an apple cuticle and left to dry. The operation was repeated 10 times. The amount absorbed through the cuticles in the uptake solution is determined by HPLC as described above. The measurements were made after 0, 6, 12, 24, 36 or 48 h.

[2] = Dynamic surface tension, bubble pressure method; assay type: physicochemical; conditions: 6 g/l
Method: Dynamic surface tension was determined via the bubble pressure method (BP2100 tensiometer, Krüss).

[3] = Table 8, mefenpyr-diethyl SC formulation, no adjuvant
[4] = Table 9, mefenpyr-diethyl SC formulation, no adjuvant
[5] = Table 7, bixlozone standard SC formulation, no adjuvant
[6] = Table 19, bixlozone SC formulation, no adjuvant
[7] = Table 26, bixlozone EC formulation, no adjuvant
[8] = Table 24, Compound 3 WP20 formulation, cuticle from 2016, no adjuvant
[9] = Table 30, Compound 5 WP20 formulation, no adjuvant
[10] = Table 31, Compound 6 WP20 formulation, no adjuvant
[11] = Table 20, prohexadione-Ca EC formulation, no adjuvant
[12] = Table 12, Rinskor EC formulation, adjuvant 2 g/l

Compound: CCOC(=O)C1=NN(c2ccc(Cl)cc2Cl)C(C)(C(=O)OCC)C1 (racemic) [Mefenpyr-diethyl, Diethyl (RS)-1-(2,4-dichlorophenyl)-4,5-dihydro-5-methyl-1H-pyrazole-3,5-dicarboxylate]
Cuticle penetration 12 h in % [1, 3]: 4% | Cuticle penetration 24 h in % [1, 3]: 9% | Cuticle penetration 48 h in % [1, 3]: 16% | Cuticle penetration 24 h in % [1, 4]: 17% | Cuticle penetration 48 h in % [1, 4]: 59%

Cuticle penetration 6 h in % [1, 5]: 21% | Cuticle penetration 12 h in % [1, 5]: 42% | Cuticle penetration 24 h in % [1, 5]: 62% | Cuticle penetration 24 h in % [1, 6]: 24% | Cuticle penetration 48 h in % [1, 6]: 73% | Cuticle penetration 6 h in % [1, 7]: 27% | Cuticle penetration 12 h in % [1, 7]: 29% | Cuticle penetration 24 h in % [1, 7]: 31%
Compound: CC1(C)CON(Cc2ccc(Cl)cc2Cl)C1=O [Bixlozone, 2-(2,4-Dichlorobenzyl)-4,4-dimethylisoxazolidin-3-one]

Cuticle penetration 12 h in % [1, 8]: 0% | Cuticle penetration 24 h in % [1, 8]: 0% | Cuticle penetration 48 h in % [1, 8]: 0%
Compound: NC(=O)c1ccc(C(F)(F)F)nc1O [Compound 3]

Cuticle penetration 12 h in % [1, 9]: 6% | Cuticle penetration 24 h in % [1, 9]: 14% | Cuticle penetration 48 h in % [1, 9]: 52%
Compound: Cc1ccc2c(c1)C(Nc1ncc(C(C)(C)O)cn1)[C@@H](C)C2 (stereo partly drawn) [Compound 5]

Cuticle penetration 12 h in % [1, 10]: 0% | Cuticle penetration 24 h in % [1, 10]: 0% | Cuticle penetration 48 h in % [1, 10]: 2%
Compound: Cc1ccc2c(c1)C(Nc1nc3n(n1)CCCCS3)CCC2 (stereo not drawn) [Compound 6]

Compound: CCC(=O)C1=C([O-])CC(C(=O)[O-])CC1=O.[Ca+2] (stereo not drawn) [Prohexadione-Ca, Calcium 3-oxido-5-oxo-4-propionyl-cyclohex-3-enecarboxylate]
Cuticle penetration 24 h in % [1, 11]: 18% | Cuticle penetration 48 h in % [1, 11]: 44%

Compound: Cn1nc(C(F)(F)F)c(CS(=O)(=O)C2=NOC(C)(C)C2)c1OC(F)F [Pyroxasulfone, 3-[5-(Difluoromethoxy)-1-methyl-3-(trifluoromethyl)pyrazol-4-ylmethylsulfonyl]-4,5-dihydro-5,5-dimethyl-1,2-oxazole]
Cuticle penetration 24 h in % ([1]; apple, 24 h, 0.5 g/l): 2%

Compound: CCCCOCCOP(=O)(OCCOCCCC)OCCOCCCC [TBEP, Tributoxyethyl phosphate]
Penetration enhancement (in words) ([1]; bixlozone, summary of Table 7): shows distinctly lower uptake of bixlozone than TEHP | Penetration enhancement (in words) ([1]; tembotrione (Laudis SC), summary of Tables 5 and 6): does not enhance the uptake of tembotrione

Compound: CCCCC(CC)COP(=O)(OCC(CC)CCCC)OCC(CC)CCCC (stereo not drawn) [TEHP, Tris(2-ethylhexyl) phosphate]
Dynamic surface tension 20 ms [2]: 71.7 mN/m | Dynamic surface tension 50 ms [2]: 71.7 mN/m | Dynamic surface tension 200 ms [2]: 71.6 mN/m | Dynamic surface tension 500 ms [2]: 71.5 mN/m | Penetration enhancement (in words) ([1]; mefenpyr-diethyl, summary of Tables 8 and 9): has better penetration-enhancing properties compared to TBEP in the combination

Compound: CS(=O)(=O)c1ccc(C(=O)C2C(=O)CCCC2=O)c(Cl)c1COCC(F)(F)F [Tembotrione]
Cuticle penetration 6 h in % ([1]; apple, 6 h, 0.5 g/l): 0% | Cuticle penetration 12 h in % ([1]; apple, 12 h, 0.5 g/l): 0%

Cuticle penetration 24 h in % [1, 12]: 5% | Cuticle penetration 48 h in % [1, 12]: 15%
Compound: Ammonium sulfate [AMS]
